Measured values: publication PMC4608799, “Structural and Functional Analysis of Murine Polyomavirus Capsid Proteins Establish the Determinants of Ligand Recognition and Pathogenicity” (PLoS Pathogens, 2015)

Key:
[1] = molecular target: T1, RA VP1 (Mouse polyomavirus (strain p16 small-plaque), UniProt P49302); assay: concentration-dependent crystal soaking, electron density quantified; format: binding; conditions: 1.5 M ammonium sulfate (competes with the Neu5Ac carboxylate), 20 C crystals, 30 min soak
T1 construct: residues 33-316, homopentamer; N-terminal His-tag cut by thrombin leaving GSHM; pET15b, E. coli BL21

[2] = molecular target: T2, PTA VP1 (Alphapolyomavirus muris, UniProt A0A247D727); assay: X-ray crystal structure of complex; conditions: receptor-binding pocket
T2 construct: residues 33-316, homopentamer; N-terminal His-tag cut by thrombin leaving GSHM; pET15b, E. coli BL21

Row | SMILES | concentration-dependent crystal soaking, electron density quantified [1] | X-ray crystal structure of complex [2]
1 | CC(=O)N[C@H]1[C@H](O[C@H]2[C@@H](O)[C@@H](CO)O[C@@H](O[C@H]3[C@H](O)[C@@H](O)C(O)O[C@@H]3CO)[C@@H]2O)O[C@H](CO[C@]2(C(=O)O)C[C@H](O)[C@@H](NC(C)=O)[C@H]([C@H](O)[C@H](O)CO)O2)[C@@H](O)[C@@H]1O[C@@H]1O[C@H](CO)[C@H](O)[C@H](O[C@]2(C(=O)O)C[C@H](O)[C@@H](NC(C)=O)[C@H]([C@H](O)[C@H](O)CO)O2)[C@H]1O (some centres unmarked) [DSLNT] | Electron density of GT1a, GD1a, and DSLNT in RA VP1 | 
2 | CC(=O)N[C@H]1[C@H]([C@H](O)[C@H](O)CO)O[C@@](O[C@H](CO)[C@@H](O)[C@@H]2O[C@@](O[C@H]3[C@@H](O)[C@@H](CO)O[C@@H](O[C@H]4[C@H](O)[C@@H](O)C(O)O[C@@H]4CO)[C@@H]3O)(C(=O)O)C[C@H](O)[C@H]2NC(C)=O)(C(=O)O)C[C@@H]1O (some centres unmarked) [GD3, glycan portion of GD3] |  | the crystal structure of PTA with the glycan portion of GD3 shows an identical binding mechanism
